This passage reports IC50 results from patent publication US12297192B2, “Crystal form of pyrimidine sulfonamide compound and preparation method therefor” (WUXI BIOCITY BIOPHARMACEUTICS CO., LTD., priority 2019, dated 2025).

“And” between values parts separate entries of the source, which are not always exact repeats. Equal entries are not always repeated. Where a SMILES comes first, the peptide text is derived from it. [ ]: non-standard residue; d: D form.

The target of one assay is T1, human ETA receptors (Homo sapiens, UniProt P25101).
T1 construct: endogenously expressed human ETA receptors in SK-N-MC cells; host or cells: SK-N-MC cells
T1 sequence (P25101 21-427): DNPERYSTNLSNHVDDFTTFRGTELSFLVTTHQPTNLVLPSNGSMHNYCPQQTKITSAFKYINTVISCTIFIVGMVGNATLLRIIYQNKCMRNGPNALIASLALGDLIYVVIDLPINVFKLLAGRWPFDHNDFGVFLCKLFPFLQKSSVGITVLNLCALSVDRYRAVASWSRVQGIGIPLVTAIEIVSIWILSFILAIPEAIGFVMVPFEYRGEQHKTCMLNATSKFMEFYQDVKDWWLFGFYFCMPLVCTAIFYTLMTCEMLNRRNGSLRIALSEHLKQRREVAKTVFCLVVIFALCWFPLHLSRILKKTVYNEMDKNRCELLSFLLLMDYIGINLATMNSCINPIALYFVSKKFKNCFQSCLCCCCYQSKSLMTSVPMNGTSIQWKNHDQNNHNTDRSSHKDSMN
The assay can be described thus: In vitro antagonistic effect on human ETA receptors (Ca2+ fluorescence, SK-N-MC cells). Format: cell-based. The conditions noted are these: SK-N-MC cells, 1 nM endothelin-1. Here is the method: The antagonistic activity of the compounds on endogenously expressed human ETA receptors in SK-N-MC cells was assessed by measuring the effects of the compounds on changes in cytoplasmic Ca^2+ ion signaling induced by an agonist of human ETA receptor using a fluorescence assay. The functional activity of the ETA receptor antagonistic effect was tested at Eurofins-Cerep SA according to current standard operating procedures.
• 1. Cells were suspended in Dulbecco's modified Eagle medium solution (DMEM, Invitrogen) supplemented with 1% FCSd and then distributed at a density of 5×10^4 cells/well in 384 plates (100 μL/well). • 2. Hank's Balanced Salt Solution (HBSS, Invitrogen) supplemented with 20 mM 4-(2-hydroxyethyl) piperazine-1-ethanesulfonic acid (Hepes, Invitrogen) (pH 7.4) was mixed with the fluorescent probe (Fluo4 NW, Invitrogen) and added to each well. Equilibrated with the cells for 60 minutes at 37° C. and then for 15 min at 22° C. • 3. The assay plate was placed in a microplate reader (CellLux, PerkinElmer). DMSO solution of the test compound and the positive control in appropriate concentration or HBSS buffer was added. After 5 minutes, 1 nM endothelin-1 or HBSS buffer (basal control) was added. Then the change in fluorescence intensity was measured. The fluorescence intensity is in proportion to the Ca^2+ ion concentration of the free cytosol. • 4. […] The standard positive control was BQ-123 and several concentrations were tested in each experiment and the data was analyzed using Prism to produce a concentration-response curve to calculate the IC50 values of the compounds. • 6.

A further assay deals with T2, human ETB receptors (Homo sapiens, UniProt P24530).
T2 construct: host or cells: CHO cells
T2 sequence (P24530 27-442): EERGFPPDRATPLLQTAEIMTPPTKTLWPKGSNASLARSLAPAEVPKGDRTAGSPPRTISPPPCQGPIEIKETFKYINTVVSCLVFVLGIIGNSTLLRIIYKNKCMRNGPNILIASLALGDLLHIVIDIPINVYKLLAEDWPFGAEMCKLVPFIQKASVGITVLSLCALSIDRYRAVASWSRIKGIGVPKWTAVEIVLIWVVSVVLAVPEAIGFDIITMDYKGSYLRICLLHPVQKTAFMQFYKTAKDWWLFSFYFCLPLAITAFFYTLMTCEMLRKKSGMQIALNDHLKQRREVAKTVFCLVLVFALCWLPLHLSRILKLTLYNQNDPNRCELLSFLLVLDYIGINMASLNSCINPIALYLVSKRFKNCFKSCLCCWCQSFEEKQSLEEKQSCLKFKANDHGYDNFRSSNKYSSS
The assay is described as follows: In vitro antagonistic effect on human ETB receptors (Ca2+ fluorescence, transfected CHO cells). Format: cell-based. The conditions noted are these: 0.3 nM endothelin-1. Here is the method:
The antagonist activities of the compounds on human ETB receptors expressed in transfected CHO cells were assessed by measuring the effects of the compounds on changes in cytoplasmic Ca^2+ ion signaling induced by an agonist of human ETB receptor using a fluorescence assay. The functional activity of the ETB receptor antagonistic effect was tested at Eurofins-Cerep SA according to current standard operating procedures.
• 1. Cells were suspended in DMEM buffer (Invitrogen) and then distributed at a density of 3×10^4 cells/well in 384 plates (100 μL/well). • 2. HBSS buffer (Invitrogen) supplemented with 20 mM Hepes (Invitrogen) (pH 7.4) was mixed with the fluorescent probe (Fluo4 Direct, Invitrogen) and added to each well. Equilibrated with the cells for 60 minutes at 37° C. and then for 15 minutes at 22° C. • 3. The assay plate was placed in a microplate reader (CellLux, PerkinElmer). DMSO solution of the test compound and the positive control or HBSS buffer in appropriate concentration was added. […] Then the change in fluorescence intensity was measured. The fluorescence intensity is in proportion to the Ca^2+ ion concentration of the free cytosol. • 4. […] The standard positive control was BQ-788 and several concentrations were tested in each experiment and the data was analyzed using Prism to produce a concentration-response curve to calculate the IC50 values of the compounds. […]

For `CC(C)C[C@@H]1NC(=O)[C@@H](C(C)C)NC(=O)[C@@H]2CCCN2C(=O)[C@@H](CC(=O)O)NC(=O)[C@@H](Cc2c[nH]c3ccccc23)NC1=O` [BQ-123, reference compound] (cyclo(L[dW][dD]P[dV])), on human ETA receptors, the IC50 was 0.61 nM and 0.48 nM.

Consider `CCCC[C@@H](NC(=O)[C@@H](Cc1cn(C(=O)OC)c2ccccc12)NC(=O)[C@H](CC(C)(C)C)NC(=O)N1[C@H](C)CCC[C@@H]1C)C(=O)O` [BQ-788], for which the IC50 on human ETB receptors was 130 nM and 91 nM.

As usually defined, the IC50 is the midpoint of a concentration-inhibition curve. High values mean weaker potency, low ones greater potency.
